Results as given in paper PMC7619633, “Targeting of multiple tumor-associated antigens by individual T cell receptors during successful cancer immunotherapy” (Cell, 2023).

Legend:
[1] = test system: MEL5 and MEL8 TCRs, MM909.24 TIL; test: Recognition of the 9-mer BST2 peptide (MIP-1β ELISA and tetramer staining); format: cell-based, human; conditions: Figures S7C–S7F
Description: In brief, tetramers were assembled by 5 consecutive 20 min incubations of PE or APC conjugated streptavidin (both from Life Technologies) with pMHC monomer at 1:4 molar ratio, on ice in the dark. Once assembled, 1:100 protease inhibitor (set 1, Merk, London, UK) and PBS was added to a working concentration of 0.1 mg mL^-1 (with regards to the pMHC component). Tetramers were stored at 4°C in the dark and used within 3 days of assembly. To remove aggregates, tetramers were centrifuged at full speed in a microfuge for 1 min immediately before staining samples. Tetramer staining was performed as previously described.[52],[53] Briefly, T cell clones, lines, TILs or Jurkat cells were pre-treated with 50 nM of the protein kinase inhibitor Dasatinib at 37°C for 10-30 min in 100 µL of FACS buffer (PBS with 2% FBS), followed by the addition of 0.5 µg tetramer (with respect to pMHC component) without washing or pre-chilling, and incubated for 30 min on ice and in the dark. Cells were then washed in PBS and stained with VIVID for 5 mins at room temperature. […]
T cells were ‘rested’ overnight in R5 medium (R10 but with 5% FBS) to help reduce spontaneous release of chemokines and cytokines. […] T cell activation towards peptide was determined by MIP-1β release, and for cancer or healthy cell targets it was determined by TNF release. […]

[2] = test system: MM909.15 TIL; test: HLA A*03:01-TAG tetramer staining of TIL from patient MM909.15; format: binding, human
Description: (§1) Staining was performed in 5 mL polystyrene test tubes (1 wash per step) or 96U well plates (3 washes per step), using 0.5-1 x10^5 cells per sample. Dead cells were detected with 2 µL of a 1:40 PBS dilution of LIVE/DEAD® Fixable Violet Dead Stain Kit (VIVID). Samples were acquired on a BD FACSCanto II (BD Biosciences, Franklin Lakes, NJ, USA) or ACEA NovoCyte 3005 with NovoSampler pro (ACEA Biosciences, Agilent, CA, US), then analyzed with FlowJo software (Tree Star Inc., Ashland, Oregon, US). Cells were gated on FSC-A versus SSC-A, single cells (FSC-A versus FSC-H), then viable cells (marker of choice versus VIVID). Cell sorting was performed on a BD FACS Aria III (BD Biosciences) by Central Biotechnology Services at Cardiff University. T cells for TCR sequencing were captured in RLT lysis buffer supplemented with 40 mM DTT or RNAprotect reagent (both from Qiagen). T cells or established cell lines sorted for culture were collected in their respective culture media supplemented with 25 µg mL^-1 of Amphotericin B (Thermo Fisher Scientific) and 10 µg mL^-1 of Ciprofloxacin (Ciproxin, Bayer, Leverkusen, Germany).
(§2) Monomeric pMHC were generated in house as described below and used to assemble tetramers as previously described.[52] […]

[3] = test system: MM909.11 TIL; test: HLA A*03:01-TAG tetramer staining of TIL from patient MM909.11; format: binding, human
Description: as §1, §2

Row | Sequence | Recognition by TCRs of this study [1] | % of TIL stained with TAG tetramer ([2]; HLA A*03:01-RLSNRLLLR tetramer, MM909.15 TIL (passage-2), Fig S4N) | TAG T cells as share of the anti-melanoma response of the TIL ([2]; MM909.15, from % tetramer+ cells and TIL reactivity toward autologous melanoma) | % of TIL stained with TAG tetramer ([3]; HLA A*03:01-RLSNRLLLR tetramer, MM909.11 TIL (passage-2), Fig S4N) | TAG T cells as share of the anti-melanoma response of the TIL ([3]; MM909.11, from % tetramer+ cells and TIL reactivity toward autologous melanoma)
1 | LLLGIGILV [BST2_9, previously described 9-mer BST2 peptide] | not recognized | – | – | – | –
2 | RLSNRLLLR [TAG, HLA A*03:01-restricted peptide from cancer/testis tumor antigen gene (TAG); peptide and tetramer] | – | 0.05% | 1.1% | 0.67% | 17.5%
